Test results taken from patent publication EP4748844A1, “AZETIDINE COMPOUND AND MEDICAL USE THEREOF” (SHANGHAI INSTITUTE OF MATERIA MEDICA, CHINESE ACADEMY OF …, priority 2023, dated 2025).

Key:
[1] = system: DMXAA induced ISG gene expression in mouse RAW-Lucia cells; assay: Inhibition of DMXAA-induced ISG gene expression in mouse RAW-Lucia cells (QUANTI-Luc); format: cell-based; conditions: STING agonist DMXAA 50 µM, incubated for 24 hours
Outline: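 RAW-Lucia cells (4×10^5/mL) stimulated with 50 µM DMXAA and co-incubated 24 h with compound at 10 to 0.004 µM (3-fold steps, 0.1% DMSO). Secreted luciferase in supernatant read with QUANTI-Luc; inhibition calculated against DMXAA-only control, IC50 from four-parameter variable-slope fit constrained 0–100.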

[2] = system: STING agonist (MSA-2) stimulation; assay: In vivo anti-inflammatory effect of injection administration on STING agonist (MSA-2) stimulation; parameters: species or system C57BL6 female mice; conditions: I-77 10mpk, IP
Description: 6-8 week C57BL6 female mice, purchased from Shanghai Jihui Experimental Animal Breeding Co., Ltd. Compound preparation method: 2 mg of I-77 powder was taken, 12 µL of PEG400 was added thereto and ultrasonically dissolved, and then 8 µL of Tween 80 was added and ultrasonically mixed to prepare a 100 mg/mL stock solution.
Experimental grouping: The control group was administered vehicle solvent; The model group was administered MSA-2 (10mpk, dissolved in 40% PEG400); The treatment group (I-77) was administered MSA-2 and I-77 (10mpk, IP). A final concentration of […] of I-77 solution was prepared by dilution with double distilled water, and 200 µL of the solution was taken and injected intraperitoneally into the mice in treatment group; The control group and MSA-2 group were injected intraperitoneally with 200 µL of vehicle solvent diluted 10 times. […] After high-speed centrifugation of blood samples, the plasma was taken and diluted by 2 times, and the levels of CXCL10 and IL6 in the plasma were detected using the Lianke ELISA kit. RNA was extracted from heart and kidney samples, and reversed to cDNA, and inflammation related cytokines (ISG15, ISG56, IL6, and IP10) in tissues were detected using qPCR technology. […]

[3] = system: STING-V154M mutant autoimmune mouse disease model; assay: Inflammatory inhibitory effect of oral administration in STING-V154M mutant autoimmune mouse disease model; format: in vivo; conditions: I-77 20mpk
Description: The model mice were purchased from GEMPHARMATECH CO., LTD., and the wild-type C57/BL6 mice were also purchased from GEMPHARMATECH CO., LTD... Compound preparation method: 2 mg of I-77 powder was taken, 12 µL of PEG400 was added thereto and ultrasonically dissolved, and then 8 µL of Tween 80 was added and ultrasonically mixed to prepare a 100 mg/mL stock solution.
Experimental grouping: Wild type mice control group (Control) was administered vehicle solvent; The model mice group (Model) was administered solvent; The treatment group (I-77) was administered I-77 (20mpk, PO) to the model mice. The mice in the I-77 treatment group were intragastrically administered 200 µL of I-77 solution at a final concentration of […] which was prepared by dilution with double-distilled water; The same dose of solvent was administered to the remaining groups until the mortality rate of the model group exceeded 50%. The kidneys and heart were collected from the experimental endpoint samples. RNA extraction was performed on heart and kidneys samples, and the RNA was reversed to cDNA. Changes in gene expression of inflammation related cytokines (ISG15, CCL5, IP10, ISG56) in the tissues were detected using qPCR technology. Statistical method: One way ANOVA, *P<0.05, **P<0.01, ***P<0.001, ***P<0.0001.

Compound: CC1(C)C(=O)N(Cc2ccsc2)c2cc(C(=O)Nc3c[nH]c4ccccc34)ccc21 [Example I-77, N-(1H-indol-3-yl)-3,3-dimethyl-2-oxo-1-(thien-3-ylmethyl)indolin-6-carboxamide]
- IC50 [1]: 2.28 nM
- IL6 and IP10 levels in plasma stimulated by MSA-2 ([2]; 3 hours before MSA-2 (10mpk), plasma ELISA 3 hours after MSA-2, Figure 1): significantly inhibit the increase
- inflammatory response of the heart and kidneys induced by MSA-2 stimulation ([2]; qPCR of ISG15, ISG56, IL6, IP10 in tissues, Figures 2, 3): suppress the inflammatory response
- cardiac and renal inflammatory responses of STING V154M mutant model mice ([3]; qPCR of ISG15, CCL5, IP10, ISG56 in heart and kidneys, Figures 8, 9): inhibit the cardiac and renal inflammatory responses
- survival of STING V154M mutant model mice ([3]; until mortality of the model group exceeded 50%, Figure 7): significantly prolong the survival
